Measurements as given in patent US5620997A, “Isothiazolones” (Warner-Lambert Company, priority 1995, dated 1997).

Key:
[1] = target: T1, HIV-1 Nucleocapsid Protein (NCp7) (Human immunodeficiency virus type 1 group M subtype B, UniProt P12493); test: Fluorescence-based (TSQ) assay of zinc ejection from purified HIV-1 NCp7; assay type: biochemical; conditions: 10 μM compound, 2.8 μM NCp7, 47 μM TSQ, pH 7.4, 26° C., 90 minutes
T1 construct: The NCp7 protein containing 2 Zn-fingers and 2 Zn ions
Text: The compounds of the present invention cause the extrusion of zinc from the nucleocapsid protein (NCp7) of HIV-1. The NC protein is highly conserved among all retroviruses (South T., Blake P., et al., Biochemistry, 1990;;29:7786) and is essential for viral infectivity (Aldovini A. and Young R., J. Virology, 1990;64:1920 and Gorelick R., Nigida S., et al., J. Virology, 1990;64:3207). The zinc is normally held in NC proteins by 1 or 2 zinc fingers. In the case of HIV-1, 2 zinc fingers are present (Summers M., South T., et al., Biochemistry, 1990;29:329) and are involved specifically with the PSI site on viral RNA which controls the packaging of viral RNA. Interference of this packaging causes the formation of non-infectious virions (Dannull J., Surovoy A., et al., EMBO, 1994;13:1525). It has previously been shown that compounds that cause zinc extrusion have potent anti-HIV activity in multiple cell lines and against all retroviruses (Rice W., Schaeffer C., et al., Nature, 1993;361:473).
A fluorescence-based assay has been developed to monitor the ejection of zinc from purified HIV-1 NCp7. The fluorophore, N-(6-methoxy-8-quinolyl)-p-toluenesulfonamide (TSQ), has an increased fluorescent signal upon bonding zinc ion in solution. The NCp7 protein containing 2 Zn-fingers and 2 Zn ions is incubated with drug causing the extrusion of Zn ions. The released Zn is then sequestered by the TSQ and the increased fluorescence monitored relative to control. The assay was performed as follows: 10 μM compound was added to 2.8 μM NCp7 and 47 μM TSQ in 20 μL of pH 7.4 buffer at 26° C. for 90 minutes. Fluorescence (excitation 355 nm emission 400 nm) was monitored versus time. Controls were the NCp7 under assay conditions without drug, and apo NCp7 (no Zn) with drug. The % Zn extrusion was calculated based on the actual fluorescence measured divided by the fluorescence of all theoretical Zn extruded (5.6 μM)×100.
Table 1 below presents the results of testing several of the invention compounds in zinc extrusion assay described above. The compounds were evaluated for their ability to cause the extrusion of zinc from nucleocapsid protein NCp7 (expressed as % relative to control).

HIV = test: CEM cell assay, anti-HIV activity (XTT, protection from viral cytopathic effects); assay type: cell-based; conditions: Human immunodeficiency virus 1, CCRF-CEM; Effective concentration which protects cells from viral cytopathic effects
Text: The test systems utilized to establish the cellular antiviral activity of the isothiazolones of Formula I are well recognized in the art and are routinely employed for such purpose. For example, the assay utilized to evaluate the compounds activity against the HIV virus is that employed by the U.S. National Cancer Institute as described by Weislow O. S., et al., J. Natl. Cancer Inst., 1989;81:577-586, incorporated herein by reference.
The procedure is designed to detect agents acting at any stage of the virus reproductive cycle. The assay basically involves the killing of T4 lymphocytes by HIV. Small amounts of HIV are added to cells, and at least two complete cycles of virus reproduction are necessary to obtain the required cell killing. Agents which interact with virions, cells, or virus gene-products to interfere with viral activities will protect cells from cytolysis. The system is automated in several features to accommodate large numbers of candidate agents, and is generally designed to detect anti-HIV activity. However, compounds which degenerate or are rapidly metabolized in the culture conditions may not show activity in this screen.
Yet another test system employed to determine antiviral activity is called the CEM cell assay.
T4 lymphocytes (CEM cell line) are exposed to HIV at a virus to cell ratio approximately 0.05, and plated along with noninfected control cells in 96-well microliter plates.
Candidate agent is dissolved in dimethyl sulfoxide (unless otherwise noted), then diluted 1:200 in cell culture medium. Further dilutions (half-log10) are prepared before adding to an equal volume of medium containing either infected or noninfected cells.
Cultures are incubated at 37° in a 5% carbon dioxide atmosphere for 6 or 7 days. The tetrazolium salt, XTT, is added to all wells, and cultures are incubated to allow formazan color development by viable cells J. National Cancer Institute, 1989;81:577-586. Individual wells are analyzed spectrophotometrically to quantitate formazan production, and in addition are viewed microscopically for detection of viable cells confirmation of protective activity.
Drug-tested virus-infected cells are compared with drug-treated noninfected cells and with other appropriate controls (untreated infected and untreated noninfected cells, drug-contain wells without cells, etc.) on the same plate. Data are reviewed in comparison with other tests done at the same time and a determination about activity is made.

[2] = CEM cell assay, toxicity (growth inhibition); assay type: cell-based; conditions: human, cem cells; Toxic concentration which inhibits the growth of cells 50% relative to control; read-out: CEM Cell Assay TC50
Experimental: T4 lymphocytes (CEM cell line) are exposed to HIV at a virus to cell ratio approximately 0.05, and plated along with noninfected control cells in 96-well microliter plates. Candidate agent is dissolved in dimethyl sulfoxide (unless otherwise noted), then diluted 1:200 in cell culture medium. Further dilutions (half-log10) are prepared before adding to an equal volume of medium containing either infected or noninfected cells. Cultures are incubated at 37° in a 5% carbon dioxide atmosphere for 6 or 7 days. The tetrazolium salt, XTT, is added to all wells, and cultures are incubated to allow formazan color development by viable cells J. National Cancer Institute, 1989;81:577-586. Individual wells are analyzed spectrophotometrically to quantitate formazan production, and in addition are viewed microscopically for detection of viable cells confirmation of protective activity. Drug-tested virus-infected cells are compared with drug-treated noninfected cells and with other appropriate controls (untreated infected and untreated noninfected cells, drug-contain wells without cells, etc.) on the same plate. Data are reviewed in comparison with other tests done at the same time and a determination about activity is made.

[3] = target: T2, rabbit reticulocyte 15-LO (Oryctolagus cuniculus, UniProt P12530); test: Colorimetric Assay of 15-LO Inhibition; assay type: biochemical; conditions: colorimetric method
T2 construct: rabbit reticulocyte 15-LO; from tissue; host or cells: rabbit reticulocytes
T2 sequence (P12530 1-663): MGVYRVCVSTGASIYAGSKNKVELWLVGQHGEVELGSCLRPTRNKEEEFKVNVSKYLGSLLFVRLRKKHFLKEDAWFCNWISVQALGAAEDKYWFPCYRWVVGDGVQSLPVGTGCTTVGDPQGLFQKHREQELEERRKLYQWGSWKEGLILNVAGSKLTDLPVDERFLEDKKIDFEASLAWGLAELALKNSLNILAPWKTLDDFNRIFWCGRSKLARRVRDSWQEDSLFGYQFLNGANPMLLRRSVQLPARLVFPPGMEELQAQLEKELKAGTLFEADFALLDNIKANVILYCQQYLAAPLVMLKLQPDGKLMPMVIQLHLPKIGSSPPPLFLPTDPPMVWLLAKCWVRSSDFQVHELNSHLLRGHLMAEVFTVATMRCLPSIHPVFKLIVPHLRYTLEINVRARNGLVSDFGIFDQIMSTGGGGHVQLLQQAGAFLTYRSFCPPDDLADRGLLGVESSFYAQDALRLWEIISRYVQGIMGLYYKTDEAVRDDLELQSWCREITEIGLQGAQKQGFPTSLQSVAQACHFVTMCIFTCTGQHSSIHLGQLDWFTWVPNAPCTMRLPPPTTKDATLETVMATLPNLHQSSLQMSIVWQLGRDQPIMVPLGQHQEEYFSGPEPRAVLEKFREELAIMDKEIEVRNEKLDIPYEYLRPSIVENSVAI
Experimental: (§1) The isothiazolones of Formula I are also effective for treating inflammation and atherosclerosis. A characteristic feature of atherosclerosis is the accumulation of cholesteryl ester engorged from foam cells. Foam cells are derived from circulating monocytes which invade artery walls in response to hypercholesterolemia, and mature into tissue macrophages. […] Specifically, representative compounds were evaluated by the methods described by Auerbach, et al., Analytical Biochemistry, 1992;201:375-380. Two in vitro assays were utilized, both utilizing rabbit reticulocyte 15-LO, and linoleic acid as substrate, to enzymatically produce a peroxide oxidation product known as 13(S)-HPODE. N-Benzoyl leucomethylene blue was utilized as a colorimetric reagent for detection and quantification of the peroxide formation. Also, HPLC was utilized to quantify the oxidation following incubation at 4° C. for 10 minutes.
(§2) Table 3 gives the concentration of compound required to inhibit 50% of the activity of 15-LO (IC50) when measured by the HPLC method of Auerbach, et al. Table 4 gives the percent inhibition of 15-LO activity when evaluated by the colorimetric method.

[4] = target: T2, rabbit reticulocyte 15-LO; test: HPLC Assay of 15-LO Inhibition; assay type: biochemical; conditions: HPLC method; linoleic acid substrate, 4° C., 10 minutes
Experimental: as §1, §2

Compound	IC50 [4] [µM]	% Zn Extrusion Relative to Control [1] [%]	also measured
CC[C@H](C)[C@@H](C(=O)O)n1sc2ccccc2c1=O [Example 2, [S-(R*,R*)]-3-Methyl-2-(3-oxo-3h-benzo[d]isothiazol-2-yl)pentanoic acid]	–	30	EC50 (HIV): 14 µM; CC50 [2]: > 100 µM
CC(=O)NS(=O)(=O)c1ccc(-n2sc3ccccc3c2=O)cc1 [Example 3, N-Acetyl-4-(3-oxo-3h-benzo[d]isothiazol-2-yl)-benzenesulfonamide]	–	–	inhibition at 10 µM [3]: 75%
O=C(O)Cn1sc2ccccc2c1=O [Example 13, 2-(3-Oxo-3h-benzo[d]isothiazol-2-yl) acetic acid]	–	75	–
CC(C)C(C(=O)O)n1sc2ccccc2c1=O (centres unmarked) [Example 14, 3-Methyl-2-(3-oxo-3h-benzo[d]isothiazol-2-yl)-butanoic acid]	–	71	EC50 (HIV): 21 µM; CC50 [2]: > 100 µM
O=c1c2ccccc2sn1-c1ccccc1 [Example 15, 2-Phenyl-3-oxo-3h-benz[d]isothiazole]	–	97	–
O=C(O)CCCn1sc2ccccc2c1=O [Example 17, 4-(3-Oxo-2-h-benzo[d]isothiaz-2-yl) butanoic acid]	–	78	EC50 (HIV): 5.8 µM; CC50 [2]: > 100 µM
Cc1ccnc(-n2sc3ccccc3c2=O)c1 [Example 18, 2-(4-Methylpyridin-2-yl)-3-oxo-3h-benzo[d]isothiazole]	–	100	–
CCN(CC)CCn1sc2nc(-c3ccccc3)ncc2c1=O [Example 21, 2-[2-(Diethylamino)ethyl]-6-phenyl-isothiazolo[5,4-d] pyrimidin-3(2H)-one]	–	–	inhibition at 10 µM [3]: 95%
CN(C)c1ncc2c(=O)n(Cc3ccccn3)sc2n1 [Example 23, 6-(Dimethylamino)-2-(2-pyridinylmethyl)isothiazolo [5,4-d]pyrimidin-3-(2H)-one]	0.4	–	–
O=C(O)Cc1ccc(-n2sc3ccccc3c2=O)cc1 [Example 25, 4-(3-Oxo-3h-benz-[d]isothiazol-2-yl)-phenyl acetic acid]	–	89	EC50 (HIV): 5.8 µM; CC50 [2]: 69 µM
NS(=O)(=O)c1ccc(NC(=O)c2ccccc2S)cc1 [Preparation 29, 2-Mercapto-N-(4-sulfamoylphenyl)benzamide]	–	5.8	–

Second part, led by results:

IC50 [4] [µM]	Compound	% Zn Extrusion Relative to Control [1] [%]	also measured
0.3	O=c1c2cnc(-c3ccccc3)nc2sn1Cc1ccccc1 [Example 24, 2-Benzyl-6-phenyl-isothiazolo[5,4-d]pyrimidin-3-one]	–	–
0.27	O=c1c2cnc(-c3ccccc3)nc2sn1CCN1CCOCC1 [Example 27, 2-(2-Morpholin-4-yl-ethyl)-6-phenyl-isothiazolo[5,4-d) pyrimidin-3-one]	–	–
0.76	O=c1c2cnc(-c3ccccc3)nc2sn1CCc1ccccc1 [Example 28, 2-Phenethyl-6-phenyl-isothiazolo[5,4-d]pyrimidin-3-one]	–	–
0.39	O=c1c2cnc(-c3ccccc3)nc2sn1Cc1ccccn1 [Example 29, 6-phenyl-2-pyridin-2-ylmethyl-isothiazolo[5,4-d] pyrimidin-3-one]	–	–
0.29	O=c1c2cnc(-c3ccccc3)nc2sn1CCc1ccccn1 [Example 30, 6-phenyl-2-(2-pyridin-2-yl-ethyl)-isothiazolo[5,4-d] pyrimidin-3-one]	–	–
1.3	O=c1c2cnc(N3CCCCC3)nc2sn1CCc1ccccn1 [Example 31, 6-Piperidin-1-yl-2-(2-pyridin-2-yl-ethyl)-isothiazolo [5,4-d]pyrimidin-3-one]	–	–
3.2	O=c1[nH]sc2nc(N3CCCCC3)ncc12 [Example 32, 6-Piperidin-1-yl-isothiazolo[5,4-d]pyrimidin-3-one]	–	–
0.12	O=c1c2cnc(N3CCOCC3)nc2sn1CCN1CCCCC1 [Example 33, 6-Morpholin-4-yl-2-(2-piperidin-1-yl-ethyl)-isothiazolo [5,4-d]pyrimidin-3-one]	–	–
1.7	CN(C)c1ncc2c(=O)n(CCc3ccccn3)sc2n1 [Example 34, 6-Dimethylamino-2-(2-pyridin-2-yl-ethyl)-isothiazolo [5,4-d]pyrimidin-3-one]	–	–
0.16	CN(C)c1ncc2c(=O)n(CCN3CCCCC3)sc2n1 [Example 35, 6-Dimethylamino-2-(2-piperidin-1-yl-ethyl)-isothiazolo [5,4-d]pyrimidin-3-one]	–	–
